Results reported in patent publication US12655116B2, “Substituted isophthalic acid diamides” (Bayer Aktiengesellschaft, priority 2020, dated 2026).

How the values were obtained:
[1] = tested on: VIOTR; assay: Post-emergence herbicidal action against VIOTR; assay type: in vivo, Viola tricolor; settings: Viola tricolor, 504 h, 80 g/ha
How it was run: (§1)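 Foliar application at one-leaf stage of formulated test compounds, aqueous spray at 600–800 l/ha with 0.2% wetting agent. Greenhouse, optimal conditions, ~3 weeks; damage scored visually in % relative to untreated plants.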

[2] = tested on: ABUTH; assay: Post-emergence herbicidal action against ABUTH; assay type: in vivo, Abutilon theophrasti; settings: Abutilon theophrasti, 504 h, visual assessment about 3 weeks after treatment vs untreated controls
How it was run: as §1

[3] = tested on: ABUTH; assay: Pre-emergence herbicidal action against ABUTH; assay type: in vivo, Abutilon theophrasti; settings: Abutilon theophrasti, 504 h
How it was run: (§2)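 Greenhouse pots of sandy loam held seeds covered with soil, onto which the compound was applied before emergence. An aqueous suspension or emulsion of WP or EC was used at 600 to 800 l/ha with 0.2% wetting agent. Percent damage was judged visually at 3 weeks.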

[4] = tested on: VERPE; assay: Pre-emergence herbicidal action against VERPE; assay type: in vivo, Veronica persica; settings: Veronica persica, 504 h
How it was run: as §2

[5] = tested on: ALOMY; assay: Post-emergence herbicidal action against ALOMY; assay type: in vivo, Alopecurus myosuroides; settings: Alopecurus myosuroides, 504 h, visual assessment about 3 weeks after treatment vs untreated controls
How it was run: as §1

[6] = tested on: VERPE; assay: Post-emergence herbicidal action against VERPE; assay type: in vivo, Veronica persica; settings: Veronica persica, 504 h
How it was run: as §1

[7] = tested on: HORMU; assay: Post-emergence herbicidal action against HORMU; assay type: in vivo, Hordeum murinum; settings: Hordeum murinum, 504 h, dosage 80 g/ha
How it was run: as §1

[8] = tested on: MATIN; assay: Post-emergence herbicidal action against MATIN; assay type: in vivo, Matricaria inodora; settings: Tripleurospermum inodorum, 504 h
How it was run: as §1

[9] = tested on: MATIN; assay: Pre-emergence herbicidal action against MATIN; assay type: in vivo, Matricaria inodora; settings: Tripleurospermum inodorum, 504 h
How it was run: as §2

[10] = tested on: HORMU; assay: Pre-emergence herbicidal action against HORMU; assay type: in vivo, Hordeum murinum; settings: Hordeum murinum, 504 h, pre-emergence
How it was run: as §2

[11] = tested on: SETVI; assay: Pre-emergence herbicidal action against SETVI; assay type: in vivo, Setaria viridis; settings: Setaria viridis, 504 h
How it was run: as §2

[12] = tested on: POLCO; assay: Post-emergence herbicidal action against POLCO; assay type: in vivo, Polygonum convolvulus; settings: Fallopia convolvulus, 504 h, dosage 80 g/ha
How it was run: as §1

[13] = tested on: AVEFA; assay: Pre-emergence herbicidal action against AVEFA; assay type: in vivo, Avena fatua; settings: Avena fatua, 504 h, pre-emergence
How it was run: as §2

[14] = tested on: ECHCG; assay: Post-emergence herbicidal action against ECHCG; assay type: in vivo, Echinochloa crus-galli; settings: Echinochloa crus-galli, 504 h
How it was run: as §1

[15] = tested on: ALOMY; assay: Pre-emergence herbicidal action against ALOMY; assay type: in vivo, Alopecurus myosuroides; settings: Alopecurus myosuroides, pre-emergence, 504 h; 320 g/ha; scored visually after 3 weeks, 100% = plants have died, 0% = like control plants
How it was run: as §2

[16] = tested on: PHBPU; assay: Post-emergence herbicidal action against PHBPU; assay type: in vivo, Pharbitis purpurea; settings: Ipomoea purpurea, 504 h, dosage 80 g/ha
How it was run: as §1

[17] = tested on: SETVI; assay: Post-emergence herbicidal action against SETVI; assay type: in vivo, Setaria viridis; settings: Setaria viridis, 504 h
How it was run: as §1

[18] = tested on: LOLRI; assay: Pre-emergence herbicidal action against LOLRI; assay type: in vivo, Lolium rigidum; settings: Lolium rigidum, 504 h, 320 g/ha
How it was run: as §2

[19] = tested on: STEME; assay: Pre-emergence herbicidal action against STEME; assay type: in vivo, Stellaria media; settings: Stellaria media, 504 h
How it was run: as §2

[20] = tested on: AVEFA; assay: Post-emergence herbicidal action against AVEFA; assay type: in vivo, Avena fatua; settings: Avena fatua, 504 h, visual assessment about 3 weeks after treatment, 100% = plants have died, 0% = like control plants
How it was run: as §1

[21] = tested on: STEME; assay: Post-emergence herbicidal action against STEME; assay type: in vivo, Stellaria media; settings: Stellaria media, 504 h
How it was run: as §1

[22] = tested on: POLCO; assay: Pre-emergence herbicidal action against POLCO; assay type: in vivo, Polygonum convolvulus; settings: Fallopia convolvulus, 504 h, dosage 320 g/ha
How it was run: as §2

[23] = tested on: AMARE; assay: Pre-emergence herbicidal action against AMARE; assay type: in vivo, Amaranthus retroflexus; settings: Amaranthus retroflexus, 504 h, 100% = plants have died, 0% = like control plants
How it was run: as §2

## CCn1nnnc1NC(=O)c1ccc(C(F)(F)F)c(C(=O)NC)c1SC [Example 2-81]
[1]
  pest or weed control at 80 g/ha: 90%
[2]; dosage 20 g/ha
  pest or weed control at 20 g/ha: 90%
[2]; dosage 80 g/ha
  pest or weed control at 80 g/ha: 90%
[3]; 80 g/ha, scored visually after 3 weeks vs untreated controls (100% = plants have died, 0% = like control plants)
  pest or weed control at 80 g/ha: 100%
[3]; Dosage: 320 g/ha, scored visually after 3 weeks, 100% = plants have died, 0% = like control plants
  pest or weed control at 320 g/ha: 100%
[4]; dosage 80 g/ha
  pest or weed control at 80 g/ha: 90%
[4]; dosage 320 g/ha
  pest or weed control at 320 g/ha: 90%
[5]; dosage 20 g/ha
  pest or weed control at 20 g/ha: 80%
[5]; dosage 80 g/ha
  pest or weed control at 80 g/ha: 90%
[6]; 20 g/ha
  pest or weed control at 20 g/ha: 80%
[6]; 80 g/ha
  pest or weed control at 80 g/ha: 90%
[7]
  pest or weed control at 80 g/ha: 80%
[8]; dosage 20 g/ha
  pest or weed control at 20 g/ha: 100%
[8]; dosage 80 g/ha
  pest or weed control at 80 g/ha: 100%
[9]; dosage 80 g/ha
  pest or weed control at 80 g/ha: 100%
[9]; dosage 320 g/ha
  pest or weed control at 320 g/ha: 100%
[10]; 80 g/ha
  pest or weed control at 80 g/ha: 90%
[10]; 320 g/ha
  pest or weed control at 320 g/ha: 100%
[11]; dosage 80 g/ha
  pest or weed control at 80 g/ha: 100%
[11]; dosage 320 g/ha
  pest or weed control at 320 g/ha: 100%
[12]
  pest or weed control at 80 g/ha: 80%
[13]; 80 g/ha
  pest or weed control at 80 g/ha: 80%
[13]; 320 g/ha, scored visually after 3 weeks, 100% = plants have died, 0% = like control plants
  pest or weed control at 320 g/ha: 100%
[14]; dosage 20 g/ha
  pest or weed control at 20 g/ha: 90%
[14]; dosage 80 g/ha
  pest or weed control at 80 g/ha: 90%
[15]
  pest or weed control at 320 g/ha: 90%
[16]
  pest or weed control at 80 g/ha: 90%
[17]; dosage 20 g/ha
  pest or weed control at 20 g/ha: 90%
[17]; dosage 80 g/ha
  pest or weed control at 80 g/ha: 90%
[18]
  pest or weed control at 320 g/ha: 90%
[19]; dosage 80 g/ha
  pest or weed control at 80 g/ha: 90%
[19]; dosage 320 g/ha
  pest or weed control at 320 g/ha: 100%
[20]; 20 g/ha
  pest or weed control at 20 g/ha: 90%
[20]; 80 g/ha
  pest or weed control at 80 g/ha: 100%
[21]; 20 g/ha
  pest or weed control at 20 g/ha: 90%
[21]; 80 g/ha
  pest or weed control at 80 g/ha: 100%
[22]
  pest or weed control at 320 g/ha: 100%
[23]; 80 g/ha, scored visually after 3 weeks vs untreated controls
  pest or weed control at 80 g/ha: 100%
[23]; 320 g/ha, scored visually after 3 weeks
  pest or weed control at 320 g/ha: 100%
